Measured values as given in patent US12544373B2, “Treatment of cancer, inflammatory diseases and autoimmune diseases” (Usher III Initiative, Inc., priority 2020, dated 2026).
Read-outs that look alike come from different tables or passages of the source.

How the values were obtained:
Assay type in all cases: cell-based, human
PRXF DU-145 = experiment: CellTiter-Blue 2D monolayer assay (Example 1), prostate; conditions: for Test/Control (%): 72 h
Protocol: (§1) Compound 85 was assessed in 10 human tumor cell lines (see Table 3) for anti-cancer activity in vitro using a CellTiter-Blue® based 2D monolayer assay.
(§2) CellTiter-Blue® Cell Viability Assay: Tumor cells were grown at 37° C. in a humidified atmosphere with 5% CO2 in RPMI medium, supplemented with 10% (v/v) fetal calf serum and 50 μg/ml gentamicin (140 μl/well). Cultures were incubated at 37° C. and 5% CO2 in a humidified atmosphere. After 24 hours, 10 μl of Compound 85 was added, and left on the cells for another 72 hours (incubation period). Compound 85 was tested at 5 concentrations (0.003 μM, 0.03 μM, 0.3 μM, 3 μM, and 30 μM) and serially diluted in DMSO, mixed with cell culture medium, and added to the assay plates by using a Tecan Freedom EVO 200 robotic platform. The DMSO concentration was kept constant at 0.3% yip across the assay plate. Every 96 well plate included six DMSO-treated control wells and Compound 85-treated wells in duplicate at 5 concentrations. Viability of cells was quantified using the CellTiter-Blue® cell viability assay (Promega G8081). After incubation of cells, the CellTiter-Blue® reagent was brought to ambient temperature. Next, 20 μl of CellTiter-Blue® reagent were added to each well. After incubation tier up to 4 hours, fluorescence (FU) was measured using the EnSpire® multimode plate reader (Perkin Elmer) ([…]).
(§3) Data Evaluation: Sigmoidal concentration-response curves were fitted to the data points (test-versus-control; T/C values) obtained for each tumor model using 4 parameter non-linear curve fit (Charles River DRS Datawarehouse Software). Drug effects are expressed in terms of the percentage of the fluorescence signal, obtained by comparison of the mean signal in the treated wells with the mean signal of the untreated controls (T/C-value [%]) (Table 4). IC50 and IC70 values were reported as relative and absolute IC50 and IC70 values (Table 5). The absolute IC50 and IC70 values reflect the concentration of Compound 85 that achieves T/C=50% and T/C=30%, respectively. The relative IC50 value is the concentration of Compound 85 that gives a response half way between the top and bottom plateau of the sigmoidal concentration-response curve (inflection point of the curve).

PRXF PC-3 = experiment: as above; conditions: for Test/Control (%): 72 h
Protocol: as §1, §2, §3

CXF HCC-2998 = experiment: CellTiter-Blue Cell Viability Assay (Example 2), colon; conditions: for T/C %: 72 h
From the text: (§4) The CellTiter-Blue® Cell Viability Assay was used to assess the viability of cells from various cancer cell lines, in the presence or absence of Compound 85 (at different concentrations). This assay provides a homogeneous, fluorometric method for estimating the number of viable cells present in multi-well plates. Viable cells retain the ability to reduce resazurin to resorufin, which is highly fluorescent. […] The fluorescence produced is proportional to the number of viable cells. There is a linear relationship between cell number and fluorescence.
(§5) Cancer cells (see Table 6) were harvested from exponential phase cultures, counted and plated in 96 well flat-bottom microtiter plates, at a cell density 6,000-20,000 cells/well, depending on the cell line's growth rate. The culture medium was supplemented with 10% (v/v) foetal calf serum and 50 μg/mL gentamicin (140 μL/well). Cultures were incubated at 37° C. and 5% CO2 in a humidified atmosphere.
(§6) Compound 85 was serially diluted in DMSO, and five Compound 85 concentrations in half-log increments were used: 0.03 μM, 0.09 μM, 0.30 μM, 1.0 μM, and 3.0 μM. After 24 h, 10 μL of Compound 85 (dissolved in DMSO) or control (DMSO) medium were added, in duplicates, and left on the cells for another 72 h. Compound 85 solutions were added to the assay plates using a Tecan Freedom EVO 200 robotic platform. The DMSO concentration was kept constant at 0.3% v/v across the assay plate.
(§7) After incubation of up to 72 hours, fluorescence (FU) was measured using the EnSpire® multimode plate reader (Perkin Elmer) (excitation λ=570 nm, emission λ=600 nm).
(§8) Cancer cell lines used: Compound 85's anti-cancer effect was tested in 20 human cancer-cell lines representing nine cancer types (Table 6).
(§9) The percentage of viable cells in the presence of Compound 85 (Test condition, T), at different concentrations, are presented in Table 7 and expressed as a percentage of the number of viable cells in the presence of DMSO without Compound 85 (Control condition, C).
(§10) The relative IC50 is determined as the Compound 85 concentration giving a response halfway between the maximum cell viability signal (i.e., a 100% cell viability, no Compound 85 response) and the minimal viability signal (i.e. maximum cell viability inhibition achieved by Compound 85), in a sigmoidal concentration-effect curve.
(§11) The absolute IC50 is determined as the concentration that is associated with a T/C ratio of 50%.

CXF LS 174T = experiment: as above; conditions: for T/C %: 72 h
From the text: as §4, §5, §6, §7, §8, §9, §10, §11

PAXF 1657 = experiment: CellTiter-Blue Cell Viability Assay (Example 2), pancreatic; conditions: for T/C %: 72 h
From the text: as §4, §5, §6, §7, §8, §9, §10, §11

PAXF HUP-T3 = experiment: as above; conditions: for T/C %: 72 h
From the text: as §4, §5, §6, §7, §8, §9, §10, §11

CC(C)(O)Cn1nc(-c2ccccc2)c2c(Cl)c(-c3ccccc3)nnc21 [Compound 85]
Rel. IC70 (PRXF DU-145): 1.376 µM | Test/Control (%) (PRXF DU-145; 0.003 μM): 100% | Test/Control (%) (PRXF DU-145; 0.03 μM): 110% | Test/Control (%) (PRXF DU-145; 0.3 μM): 102% | Test/Control (%) (PRXF DU-145; 3 μM): 11% | Test/Control (%) (PRXF DU-145; 30 μM): 6% | Abs. IC70 (PRXF DU-145; T/C=30%): 1.528 µM | IC50 (PRXF DU-145; T/C=50%, read-out: Abs. IC50): 1.09 µM | Bot. (%) (PRXF DU-145; bottom plateau of curve): 6% | IC50 (PRXF DU-145; read-out: Rel. IC50): 1 µM | Top (%) (PRXF DU-145; top plateau of curve): 105% | Rel. IC70 (PRXF PC-3): 1.326 µM | Test/Control (%) (PRXF PC-3; 0.003 μM): 104% | Test/Control (%) (PRXF PC-3; 0.03 μM): 103% | Test/Control (%) (PRXF PC-3; 0.3 μM): 103% | Test/Control (%) (PRXF PC-3; 3 μM): 2% | Test/Control (%) (PRXF PC-3; 30 μM): 1% | Abs. IC70 (PRXF PC-3; T/C=30%): 1.349 µM | IC50 (PRXF PC-3; T/C=50%, read-out: Abs. IC50): 1.1 µM | Bot. (%) (PRXF PC-3; bottom plateau of curve): 1% | IC50 (PRXF PC-3; read-out: Rel. IC50): 1.08 µM | Top (%) (PRXF PC-3; top plateau of curve): 103% | Absolute IC70 (CXF HCC-2998): 1.125 µM | Relative IC70 (CXF HCC-2998): 0.891 µM | T/C % (CXF HCC-2998; 0.03 μM): 98% | T/C % (CXF HCC-2998; 0.095 μM): 99% | T/C % (CXF HCC-2998; 0.3 μM): 98% | T/C % (CXF HCC-2998; 0.95 μM): 40% | T/C % (CXF HCC-2998; 3.0 μM): 22% | IC50 (CXF HCC-2998; read-out: Absolute IC50): 0.844 µM | IC50 (CXF HCC-2998; read-out: Relative IC50): 0.765 µM | Absolute IC70 (CXF LS 174T): 0.474 µM | Relative IC70 (CXF LS 174T): 0.467 µM | T/C % (CXF LS 174T; 0.03 μM): 96% | T/C % (CXF LS 174T; 0.095 μM): 96% | T/C % (CXF LS 174T; 0.3 μM): 72% | T/C % (CXF LS 174T; 0.95 μM): 5% | T/C % (CXF LS 174T; 3.0 μM): 3% | IC50 (CXF LS 174T; read-out: Absolute IC50): 0.383 µM | IC50 (CXF LS 174T; read-out: Relative IC50): 0.384 µM | Absolute IC70 (PAXF 1657): 1.166 µM | Relative IC70 (PAXF 1657): 1.169 µM | T/C % (PAXF 1657; 0.03 μM): 97% | T/C % (PAXF 1657; 0.095 μM): 94% | T/C % (PAXF 1657; 0.3 μM): 97% | T/C % (PAXF 1657; 0.95 μM): 66% | T/C % (PAXF 1657; 3.0 μM): 1% | IC50 (PAXF 1657; read-out: Absolute IC50): 1.04 µM | IC50 (PAXF 1657; read-out: Relative IC50): 1.05 µM | Absolute IC70 (PAXF HUP-T3): 0.723 µM | Relative IC70 (PAXF HUP-T3): 0.602 µM | T/C % (PAXF HUP-T3; 0.03 μM): 95% | T/C % (PAXF HUP-T3; 0.095 μM): 102% | T/C % (PAXF HUP-T3; 0.3 μM): 88% | T/C % (PAXF HUP-T3; 0.95 μM): 21% | T/C % (PAXF HUP-T3; 3.0 μM): 16% | IC50 (PAXF HUP-T3; read-out: Absolute IC50): 0.532 µM | IC50 (PAXF HUP-T3; read-out: Relative IC50): 0.487 µM
